We go through 20 compounds from US11724999B2, “Inhibitors of RAS-effector protein interactions” (Oxford University Innovation Limited, priority 2018, dated 2023).

The target of test [1] is T1, GST-human KRas166 (G12V) GPPNHP (Homo sapiens, UniProt P01116, G12V).
T1 construct: made in house; host or cells: E. coli C41(DE3)
The test is described as follows: KRas small-molecule screening by SPR (BIACORE T200). The class given is binding. The note with it: compound at final concentration of 100 uM; immobilised GST-KRAS166 (G12V) GPPNHP, GST reference channel. On the procedure:
For SPR assays pGEX-KRAS(G12V) plasmid was transformed into E. coli C41(DE3). Bacterial cells were cultured at 37° C. to an OD600 of 0.6 and induced with IPTG (final 0.1 mM) at 18° C. overnight. The GST fusion proteins were extracted from bacteria pellets after cell disruption in 140 mM NaCl, 2.7 mM KCl, […], 1.8 mM KH2PO4, 1 mM EDTA, 2 mM MgCl2 pH 7.4 and purified by glutathione-sepharose column chromatography (GE Healthcare), eluting with 50 mM Tris-HCl pH8.0, 10 mM reduced glutathione, 1 mM DTT, 2 mM MgC2. The eluted proteins were dialysed against 50 mM Tris-HCl pH8.0, 1 mM DTT, 2 mM MgCl2 and concentrated to 10 mg/ml using a Biomax-30 […]-15 centrifugal filter device (Millipore). Purified KRAS protein was loaded with GPPNHP as described elsewhere (Pacold et al., 2000). Loaded protein was then purified by gel filtration on a HiLoad Superdex-75 HR column (GE Healthcare) in 1×PBS pH7.4, 5 mM MgCl2 and concentrated for storage.
To a previously immobilized CM5 chip (GE Healthcare BR-1005-30) with anti GST antibody via amine coupling method, GST in channel 1 and GST-human KRas166 (G12V) GPPNHP in channel 2 were immobilised. GST was immobilised between 2,000 and 5,000 Response units. KRAS166 (G12V) was immobilized between 10,000 to 15,000 Response Units.
In a 96 well plate, compounds were diluted in […], 5 mM MgCl2 and 5% DMSO Buffer to a final concentration of 100 uM. DCAI was used as positive control. Experiment also included a solvent correction curve for 5% DMSO. Screening and evaluation of the protein immobilization and the compounds screening was done accordingly to the BIACORE T200 control and evaluation software.
Protein immobilisation: 10,000 RU; average fragment 300 Da in size. Rmax=(MWA/MWL)×RL×SM MWA is the molecular weight of the analyte in Da MWL is the molecular weight of the ligand in Da RL is the immobilization level in RU SM is the molar stoichiometry (assume 1:1) Rmax=300/47,500×10,000×1 Rmax=63 RU. Cell Viability Assay protocols
(In general: Surface plasmon resonance follows binding to a sensor surface in real time, without labels.)

Test [2] deals with H358 cells (ATCC CRL-5807). The test is described as follows: Cell viability assay (CellTiter-Glo), H358 cells. Type of test: cell-based. The note with it: Homo sapiens, NCI-H358, 48 h incubation, first value of the cell, read-out: Cell Viability (μM) H358 (concentration that decreases cell viability by 50%). On the procedure: (§1) Cells (A549 ATCC CCL-185) are cultured in Dulbecco's Modified Eagle's Medium plus 10% foetal calf serum and 2 mM L-glutamine at 37° C., 5% CO2. Cells are plated onto white clear bottom 96-well plates (5000 cells/well in 200 μl media) and left to adhere overnight at 37° C., 5% CO2. Next day, test compound (1 μl at 200× concentration in 100% DMSO) is added to give final test compound concentration 1× in 0.5% DMSO. After 48 h of incubation at 37° C., 5% CO2, 20 μl CellTiter-Glo reagent (Promega G7572) is added into each well. Plates are incubated at room temperature with shaking for 30 min and then luminescence is read using a PheraStar plate reader. The concentration of compounds that decrease cell viability by 50% is calculated from dose response curves generated using Dotmatics data analysis software.
In the H358 cell assay, cells (ATCC CRL-5807) are cultured in RPM-1640 medium plus 10% foetal calf serum and 2 mM L-glutamine at 37° C., 5% CO2.
(In general: ATP-based viability assays read luminescence as a measure of living cells.)

The subject of test [3] is DLD1 cells (ATCC CCL-221). The test can be described thus: Cell viability assay (CellTiter-Glo), DLD1 cells. The class given is cell-based. Conditions: Homo sapiens, DLD-1 cells, 48 h incubation, second value of the cell, read-out: Cell Viability (μM) DLD-1 (concentration that decreases cell viability by 50%). On the procedure:
as §1
In the DLD1 cell assay, cells (ATCC CCL-221) are cultured in RPMI-1640 medium plus 10% foetal calf serum and 2 mM L-glutamine at 37° C., 5% CO2.

Where only a bound is given, the exact number is not on record here.

As for `CN1CCN(Cc2ccc(C(=O)NC[C@@H]3COc4ccc(OCc5ccc(Cl)cc5)cc4O3)o2)CC1` [Example 24, 5-(4-Methyl-piperazin-1-ylmethyl)-furan-2-carboxylic acid [(R)-7-(4-chloro-benzyloxy)-2,3-dihydro-benzo[1,4]dioxin-2-ylmethyl]-amide], in test [1], the “SPR Response Units” value is 226 Response Units. Also, the IC50 was determined as 49 µM in test [2] and 2.5 µM in test [3].
Take `CN(C)CCCOc1ccc(CN(C[C@@H]2COc3ccc(OCc4ccccc4)cc3O2)C(=O)c2ncco2)cc1` [Example 40, Oxazole-2-carboxylic acid ((R)-7-benzyloxy-2,3-dihydro-benzo[1,4]dioxin-2-ylmethyl)-[4-(3-dimethylamino-propoxy)-benzyl]-amide]: in test [1], the “SPR Response Units” value stood at 173 Response Units. Further, the IC50 in test [2] is 14 µM; in test [3], 2 µM.
`CN1CCC(C(=O)NC[C@@H]2COc3ccc(OCc4ccc(Cl)cc4)cc3O2)CC1` [Example 18, 1-Methyl-piperidine-4-carboxylic acid [(R)-7-(4-chloro-benzyloxy)-2,3-dihydro-benzo[1,4]dioxin-2-ylmethyl]-amide]: in test [1], the “SPR Response Units” value was determined as 61 Response Units. The values for the IC50 in test [2] and in test [3] were 10 µM and 5.4 µM, respectively.
On to `CN1CCC(C(=O)NC[C@@H]2COc3ccc(OCc4ccc(F)c(F)c4)cc3O2)CC1` [Example 27, 1-Methyl-piperidine-4-carboxylic acid [(R)-7-(3,4-difluoro-benzyloxy)-2,3-dihydro-benzo[1,4]dioxin-2-ylmethyl]-amide], for which, in test [1], the “SPR Response Units” value is recorded as 44 Response Units. Moreover, the IC50 is 33.2 µM in test [2] and 5.6 µM in test [3].
Consider `CN1CCN(c2cccc(CNC[C@@H]3COc4ccc(OCc5ccccc5)cc4O3)c2)CC1` [Example 53, ((R)-7-Benzyloxy-2,3-dihydro-benzo[1,4]dioxin-2-ylmethyl)-[3-(4-methyl-piperazin-1-yl)-benzyl]-amine], for which the IC50 was found to be 8 µM in test [2] and 5 µM in test [3].
As to `Cc1ccc(COc2ccc3c(c2)O[C@H](CNC(=O)C2CCN(C)CC2)CO3)cc1` [Example 29, 1-Methyl-piperidine-4-carboxylic acid [(R)-7-(4-methyl-benzyloxy)-2,3-dihydro-benzo[1,4]dioxin-2-ylmethyl]-amide], in test [1], the “SPR Response Units” value was determined as 37 Response Units. For the same compound, the IC50 in test [2] was determined as 12.5 µM; in test [3], 6.8 µM.
On the same counts, the results for `O=C1CN(C2CCNCC2)C(=O)N1C[C@@H]1COc2ccc(OCc3ccccc3)cc2O1` [Example 79, 3-((R)-7-Benzyloxy-2,3-dihydro-benzo[1,4]dioxin-2-ylmethyl)-1-piperidin-4-yl-imidazolidine-2,4-dione] are 72 Response Units, 50 µM and 9 µM.
On the same counts, the results for `CN1CCN(Cc2ccc(C(=O)NC[C@@H]3COc4ccc(OCCc5ccccc5)cc4O3)o2)CC1` [Example 23, 5-(4-Methyl-piperazin-1-ylmethyl)-furan-2-carboxylic acid ((R)-7-phenethyloxy-2,3-dihydro-benzo[1,4]dioxin-2-ylmethyl)-amide] are 86 Response Units, 35 µM and 3.5 µM.
As to `CN1CCC(C(=O)NC[C@@H]2COc3ccc(OCc4cccc(Cl)c4)cc3O2)CC1` [Example 30, 1-Methyl-piperidine-4-carboxylic acid [(R)-7-(3-chloro-benzyloxy)-2,3-dihydro-benzo[1,4]dioxin-2-ylmethyl]-amide], in test [1], the “SPR Response Units” value came out at 64 Response Units. The IC50 is 16.2 µM in test [2] and 3.9 µM in test [3].
On the same counts, the results for `CN1CCC(CNC[C@@H]2COc3ccc(OCc4ccccc4)cc3O2)CC1` [Example 46, ((R)-7-Benzyloxy-2,3-dihydro-benzo[1,4]dioxin-2-ylmethyl)-(1-methyl-piperidin-4-ylmethyl)-amine] are 75 Response Units, 16 µM and 2 µM.
On to `c1ccc(COc2ccc3c(c2)O[C@H](CNCC2CCOCC2)CO3)cc1` [Example 33, ((R)-7-Benzyloxy-2,3-dihydro-benzo[1,4]dioxin-2-ylmethyl)-(tetrahydro-pyran-4-ylmethyl)-amine], for which the IC50 is greater than 100 µM in test [2] and 18 µM in test [3].
On to `CN1CCN(Cc2cnc(C(=O)NC[C@@H]3COc4ccc(OCc5ccccc5)cc4O3)o2)CC1` [Example 4, 5-(4-Methyl-piperazin-1-ylmethyl)-oxazole-2-carboxylic acid ((R)-7-benzyloxy-2,3-dihydro-benzo[1,4]dioxin-2-ylmethyl)-amide], for which, in test [1], the “SPR Response Units” value was determined as 66 Response Units. Also, the IC50 in test [2] stood at 57 µM; in test [3], 12 µM.
Consider `c1ccc(COc2ccc3c(c2)O[C@H](CNCC2CCCNC2)CO3)cc1` (stereo partly drawn) [Example 58, ((R)-7-Benzyloxy-2,3-dihydro-benzo[1,4]dioxin-2-ylmethyl)-piperidin-3-ylmethyl-amine], for which the IC50 came to 14.7 µM in test [2] and 13.8 µM in test [3].
On the same counts, the results for `CN1CCN(Cc2cccc(C(=O)NC[C@@H]3COc4ccc(OCc5ccccc5)cc4O3)c2)CC1` [Example 7, N-((R)-7-Benzyloxy-2,3-dihydro-benzo[1,4]dioxin-2-ylmethyl)-3-(4-methyl-piperazin-1-ylmethyl)-benzamide] are 19.2 µM and 10.5 µM.
Take `CN1CCC(N(C)C(=O)NC[C@@H]2COc3ccc(OCc4ccccc4)cc3O2)CC1` [Example 81, 3-(7-Benzyloxy-2,3-dihydro-benzo[1,4]dioxin-2-ylmethyl)-1-methyl-1-(1-methyl-piperidin-4-yl)-urea]: the “SPR Response Units” value in test [1] is reported as 75 Response Units.
On the same count and under the same terms, the same measure for `NC[C@@H]1COc2ccc(OCc3ccccc3)cc2O1` [Example 86, C—((R)-7-Benzyloxy-2,3-dihydro-benzo[1,4]dioxin-2-yl)-methylamine]: 28 Response Units; for `Cc1n[nH]c(C)c1CC(=O)NC[C@@H]1COc2ccc(OCc3ccccc3)cc2O1` [Example 12, N-((R)-7-Benzyloxy-2,3-dihydro-benzo[1,4]dioxin-2-ylmethyl)-2-(3,5-dimethyl-1H-pyrazol-4-yl)-acetamide]: 53 Response Units; for `CN1CCN(Cc2ccc(C(=O)NC[C@@H]3COc4ccc(OCc5cncc(Cl)c5)cc4O3)o2)CC1` [Example 25, 5-(4-Methyl-piperazin-1-ylmethyl)-furan-2-carboxylic acid [(R)-7-(5-chloro-pyridin-3-ylmethoxy)-2,3-dihydro-benzo[1,4]dioxin-2-ylmethyl]-amide]: 45 Response Units.
The same measure, in the same setting: the same measure for `NC(=O)CN1CCC(C(=O)NC[C@@H]2COc3ccc(OCc4ccccc4)cc3O2)CC1` [Example 14, 1-Carbamoylmethyl-piperidine-4-carboxylic acid ((R)-7-benzyloxy-2,3-dihydro-benzo[1,4]dioxin-2-ylmethyl)-amide]: 24 Response Units; for `O=C(NC[C@@H]1COc2ccc(OCc3ccccc3)cc2O1)C1CCNCC1` [Example 17, Piperidine-4-carboxylic acid ((R)-7-benzyloxy-2,3-dihydro-benzo[1,4]dioxin-2-ylmethyl)-amide]: 22 Response Units.
